Results taken from ChEMBL document CHEMBL1157668, “Synthesis and structure-activity relationships of N-benzyl-N-(X-2-hydroxybenzyl)-N'-phenylureas and thioureas as antitumor agents” (Bioorg Med Chem, 2010).

Experiments:
[1] = molecular target: Receptor tyrosine-protein kinase erbB-2 (Homo sapiens, UniProt P04626); experiment: biochemical
Description: Inhibition of human cloned HER2 autophosphorylation expressed in baculovirus-infected Sf9 cells by solid-phase ELISA

MCF7 = experiment: cells; settings: Homo sapiens, MCF7, 48 h
[2] = molecular target: Epidermal growth factor receptor (Homo sapiens, UniProt P00533); experiment: biochemical
Chain of Epidermal growth factor receptor (P00533 whole entry): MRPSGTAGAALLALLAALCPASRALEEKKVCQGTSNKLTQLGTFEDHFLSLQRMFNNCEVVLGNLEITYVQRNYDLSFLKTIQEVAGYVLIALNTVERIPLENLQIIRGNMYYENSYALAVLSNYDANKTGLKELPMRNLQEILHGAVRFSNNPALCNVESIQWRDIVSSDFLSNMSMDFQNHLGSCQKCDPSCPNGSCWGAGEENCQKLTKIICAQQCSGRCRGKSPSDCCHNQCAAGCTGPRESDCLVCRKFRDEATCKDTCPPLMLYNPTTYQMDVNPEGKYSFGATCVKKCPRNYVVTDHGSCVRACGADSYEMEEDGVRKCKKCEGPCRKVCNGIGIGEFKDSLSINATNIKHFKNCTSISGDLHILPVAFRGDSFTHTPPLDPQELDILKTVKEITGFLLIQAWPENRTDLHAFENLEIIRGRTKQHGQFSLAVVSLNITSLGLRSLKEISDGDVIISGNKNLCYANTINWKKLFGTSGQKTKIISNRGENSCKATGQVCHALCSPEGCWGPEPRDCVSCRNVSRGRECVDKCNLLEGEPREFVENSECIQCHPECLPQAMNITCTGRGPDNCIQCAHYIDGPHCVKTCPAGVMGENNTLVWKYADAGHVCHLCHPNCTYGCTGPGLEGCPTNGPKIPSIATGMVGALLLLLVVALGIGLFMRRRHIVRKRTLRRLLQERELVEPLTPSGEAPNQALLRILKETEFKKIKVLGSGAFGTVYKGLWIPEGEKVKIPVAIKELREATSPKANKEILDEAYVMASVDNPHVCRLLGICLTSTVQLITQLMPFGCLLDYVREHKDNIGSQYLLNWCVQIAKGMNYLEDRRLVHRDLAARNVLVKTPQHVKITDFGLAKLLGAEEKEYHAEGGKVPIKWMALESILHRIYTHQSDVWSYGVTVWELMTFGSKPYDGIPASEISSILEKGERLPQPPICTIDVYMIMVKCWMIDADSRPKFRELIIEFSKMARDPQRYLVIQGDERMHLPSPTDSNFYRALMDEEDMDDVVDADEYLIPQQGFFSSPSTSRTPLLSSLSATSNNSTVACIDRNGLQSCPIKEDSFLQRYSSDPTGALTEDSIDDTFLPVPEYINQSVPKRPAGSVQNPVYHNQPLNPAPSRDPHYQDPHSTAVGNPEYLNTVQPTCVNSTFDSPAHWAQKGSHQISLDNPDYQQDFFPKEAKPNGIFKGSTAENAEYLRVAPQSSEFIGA
Description: Inhibition of cloned EGFR autophosphorylation expressed in baculovirus-infected Sf9 cells by solid-phase ELISA

Chain of Receptor tyrosine-protein kinase erbB-2 (P04626 whole entry): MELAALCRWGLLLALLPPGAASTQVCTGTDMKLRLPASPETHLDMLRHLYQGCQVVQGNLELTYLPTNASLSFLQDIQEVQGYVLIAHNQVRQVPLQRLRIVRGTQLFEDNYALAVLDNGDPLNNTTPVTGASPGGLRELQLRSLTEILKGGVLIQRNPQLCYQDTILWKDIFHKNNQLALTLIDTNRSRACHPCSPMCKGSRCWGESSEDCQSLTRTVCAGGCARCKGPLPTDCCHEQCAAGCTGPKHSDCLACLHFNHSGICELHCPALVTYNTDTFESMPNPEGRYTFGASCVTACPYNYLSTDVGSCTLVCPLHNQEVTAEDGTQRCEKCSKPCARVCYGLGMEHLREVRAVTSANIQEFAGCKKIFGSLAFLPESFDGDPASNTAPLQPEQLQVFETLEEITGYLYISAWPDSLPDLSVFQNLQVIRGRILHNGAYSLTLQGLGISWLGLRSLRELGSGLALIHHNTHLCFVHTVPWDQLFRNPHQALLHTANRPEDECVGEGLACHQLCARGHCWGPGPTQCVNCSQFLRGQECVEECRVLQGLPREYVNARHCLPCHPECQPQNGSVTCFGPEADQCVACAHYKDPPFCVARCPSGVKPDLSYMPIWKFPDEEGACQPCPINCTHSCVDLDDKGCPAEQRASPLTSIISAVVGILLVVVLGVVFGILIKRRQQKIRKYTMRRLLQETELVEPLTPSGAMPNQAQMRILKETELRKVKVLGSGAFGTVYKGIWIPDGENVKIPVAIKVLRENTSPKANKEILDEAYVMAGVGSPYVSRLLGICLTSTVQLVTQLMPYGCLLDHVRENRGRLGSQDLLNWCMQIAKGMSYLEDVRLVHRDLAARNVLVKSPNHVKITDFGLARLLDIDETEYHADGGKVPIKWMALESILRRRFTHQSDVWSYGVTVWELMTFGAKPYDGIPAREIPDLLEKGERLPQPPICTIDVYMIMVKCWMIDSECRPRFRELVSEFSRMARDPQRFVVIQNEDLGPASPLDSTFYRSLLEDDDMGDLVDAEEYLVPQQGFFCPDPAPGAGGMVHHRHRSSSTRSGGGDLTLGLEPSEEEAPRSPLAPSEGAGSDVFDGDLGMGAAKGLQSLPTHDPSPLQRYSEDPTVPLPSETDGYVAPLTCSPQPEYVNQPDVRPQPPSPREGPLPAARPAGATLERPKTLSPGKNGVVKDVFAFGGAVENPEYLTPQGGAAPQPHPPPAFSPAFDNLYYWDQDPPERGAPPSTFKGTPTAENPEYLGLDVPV

Row | IC50 [1] [µM] | IC50 (MCF7) [µM] | IC50 [2] [µM] | Compound
1 | > 50 | 6.6 | 27.4 | Cc1cc(C)c(O)c(CN(Cc2ccc(F)cc2)C(=O)Nc2ccccc2)c1
2 | > 50 | 26 | > 50 | CCCCN(Cc1cc(C)cc(C)c1O)C(=O)Nc1ccccc1
3 | > 50 | 34.1 | > 50 | Cc1cc(C)c(O)c(CN(Cc2ccccc2)C(=S)Nc2ccccc2)c1
4 | 1.41 | 0.52 | 0.67 | Oc1c(Cl)cccc1CN(Cc1ccc(F)cc1)C(=S)Nc1ccccc1
5 | 3.45 | 1.1 | 1.98 | O=C(Nc1ccccc1)N(Cc1ccc(F)cc1)Cc1cccc(Cl)c1O
6 | 2.66 | 0.25 | 1.07 | O=C(Nc1ccccc1)N(Cc1ccc(O)cc1)Cc1cccc(Br)c1O
7 | 32.5 | 7.4 | 18.1 | CCCCN(Cc1cccc(Cl)c1O)C(=S)Nc1ccccc1
8 | 0.66 | 0.06 | 0.12 | Oc1ccc(CN(Cc2cccc(Br)c2O)C(=S)Nc2ccccc2)cc1
9 | 4.53 | 1.32 | 1.12 | O=C(Nc1ccccc1)N(Cc1ccc(O)cc1)Cc1cc(Br)cc(Br)c1O
10 | 39.8 | 12.8 | 24.6 | CCCCN(Cc1cc(Cl)cc(Cl)c1O)C(=S)Nc1ccccc1
11 | 6.49 | 1.1 | 1.34 | Oc1c(Cl)cc(Cl)cc1CN(Cc1ccc(F)cc1)C(=S)Nc1ccccc1
12 | 37.8 | 10.5 | 19.4 | Cc1cc(C)c(O)c(CN(Cc2ccc(F)cc2)C(=S)Nc2ccccc2)c1
13 | 9.47 | 2.6 | 5.83 | Cc1cc(C)c(O)c(CN(Cc2ccc(O)cc2)C(=S)Nc2ccccc2)c1
14 | 2.24 | 0.36 | 0.87 | Oc1ccc(CN(Cc2cc(Br)cc(Br)c2O)C(=S)Nc2ccccc2)cc1
15 | > 50 | 23.6 | 43.2 | CCCCN(Cc1cccc(C)c1O)C(=S)Nc1ccccc1
16 | 16.1 | 8.5 | 9.26 | Cc1cc(C)c(O)c(CN(Cc2ccc(O)cc2)C(=O)Nc2ccccc2)c1
17 | > 50 | 30 | > 50 | CCCCN(Cc1cc(Cl)cc(Cl)c1O)C(=O)Nc1ccccc1

Row | IC50 [1] [µM] | IC50 (MCF7) [µM] | IC50 [2] [µM] | Compound
18 | > 50 | 52 | > 50 | CCCCN(Cc1cccc(C)c1O)C(=O)Nc1ccccc1
19 | 39.5 | 14.2 | 22 | CCCCN(Cc1cccc(Br)c1O)C(=S)Nc1ccccc1
20 | > 50 | 16.7 | 31.9 | CCCCN(Cc1cc(Br)cc(Br)c1O)C(=S)Nc1ccccc1
21 | 15.7 | 3.8 | 8.54 | Cc1cccc(CN(Cc2ccc(F)cc2)C(=S)Nc2ccccc2)c1O
22 | 2.21 | 1.1 | 1.86 | O=C(Nc1ccccc1)N(Cc1ccc(O)cc1)Cc1cc(Cl)cc(Cl)c1O
23 | 6.73 | 1.7 | 1.76 | Oc1c(Br)cc(Br)cc1CN(Cc1ccc(F)cc1)C(=S)Nc1ccccc1
24 | 1.87 | 0.73 | 0.98 | Oc1c(Br)cccc1CN(Cc1ccc(F)cc1)C(=S)Nc1ccccc1
25 | > 50 | 35 | > 50 | CCCCN(Cc1cc(Br)cc(Br)c1O)C(=O)Nc1ccccc1
26 | 12.4 | 3.6 | 4.68 | O=C(Nc1ccccc1)N(Cc1ccc(F)cc1)Cc1cc(Br)cc(Br)c1O
27 | 9.64 | 2.8 | 4.15 | O=C(Nc1ccccc1)N(Cc1ccc(F)cc1)Cc1cc(Cl)cc(Cl)c1O
28 | 38.2 | 5.5 | 21.7 | Cc1cccc(CN(Cc2ccc(F)cc2)C(=O)Nc2ccccc2)c1O
29 | 5.17 | 1.4 | 2.24 | O=C(Nc1ccccc1)N(Cc1ccc(F)cc1)Cc1cccc(Br)c1O
30 | > 50 | 9.3 | 32.1 | CCCCN(Cc1cccc(Cl)c1O)C(=O)Nc1ccccc1
31 | 1.23 | 0.22 | 0.56 | Oc1ccc(CN(Cc2cc(Cl)cc(Cl)c2O)C(=S)Nc2ccccc2)cc1
32 | 7.13 | 1.2 |  | Cc1cccc(CN(Cc2ccc(O)cc2)C(=S)Nc2ccccc2)c1O
33 | 18.4 | 5.3 | 7.51 | Cc1cccc(CN(Cc2ccc(O)cc2)C(=O)Nc2ccccc2)c1O
34 | > 50 | 9.1 | 36.9 | CCCCN(Cc1cccc(Br)c1O)C(=O)Nc1ccccc1

Row | Compound | IC50 [1] [µM] | IC50 (MCF7) [µM] | IC50 [2] [µM]
35 | O=C(Nc1ccccc1)N(Cc1ccc(O)cc1)Cc1cccc(Cl)c1O | 2.27 | 0.19 | 0.96
36 | Oc1ccc(CN(Cc2cccc(Cl)c2O)C(=S)Nc2ccccc2)cc1 | 0.35 | 0.03 | 0.08
